# Measurements published in PMC5552351, “Bacteriological profiling of diphenylureas as a novel class of antibiotics against methicillin-resistant Staphylococcus aureus” (PLoS ONE, 2017).
# Experiments:
# MRSA USA400 (NRS123) [1] = experiment: multi-step resistance selection; assay type: cell-based, Staphylococcus aureus; conditions: for increase in MIC after fourteen passages: fourteen passages over two weeks; for MIC: Staphylococcus aureus, read-out: initial MIC
# Procedure: To assess MRSA’s ability to develop resistance to the diphenylurea compounds after repeated exposure, a multi-step resistance selection experiment was conducted. […] Resistance was classified as a greater than four-fold increase in the initial MIC, as reported elsewhere.
# Bacillus subtilis = experiment: Bacterial Cytological Profiling (BCP); assay type: cell-based; conditions: two hours, LB-MSM osmotically buffered media, 37 °C
# Procedure: B. subtilis cells were grown in Luria Bertani (LB) medium at 37 °C until the optical density at 600 nm (OD600) was ~0.20. Cells were then left untreated or treated with compound 1 or control antibiotics in the presence of methylsulfonylmethane (MSM), as described previously. After two hours, cells were stained with FM 4−64 (1 μg/mL) to visualize cell membranes; DAPI (1 μg/ml) to visualize DNA, and SYTOX Green (1 μg/mL), a vital stain which is normally excluded from cells with an intact membrane but brightly stains cells that are lysed. Images were collected using a Delta Vision Spectris Deconvolution microscope, as described previously.
# MRSA NRS123 (USA400) = experiment: broth microdilution MIC/MBC; assay type: cell-based; conditions: Staphylococcus aureus
# Procedure: (§1) The broth microdilution assay was employed to determine the MIC of compounds 1, 2, and vancomycin against five MRSA strains, four VRSA strains, one highly mupirocin-resistant S. aureus strain, one biofilm-forming S. aureus (ATCC 6538) strain, and one biofilm-forming methicillin-resistant S. epidermidis strain, as per the guidelines of the Clinical and Laboratory Standards Institute (CLSI). […] The MBC was determined by plating an aliquot (5 μL) from wells with no growth onto TSA plates. Plates were incubated at 37 °C for 19 hours before recording the MBC (concentration where no growth was observed on TSA plates).
# MRSA NRS384 (USA300) = experiment: broth microdilution MIC/MBC; assay type: cell-based; conditions: Staphylococcus aureus
# Procedure: as §1
# MRSA NRS387 (USA800) = experiment: broth microdilution MIC/MBC; assay type: cell-based; conditions: Staphylococcus aureus
# Procedure: as §1
# MRSA NRS483 (USA1000) = experiment: broth microdilution MIC/MBC; assay type: cell-based; conditions: Staphylococcus aureus
# Procedure: as §1
# MRSA NRS484 (USA1100) = experiment: broth microdilution MIC/MBC; assay type: cell-based; conditions: Staphylococcus aureus
# Procedure: as §1
# S. aureus NRS107 = experiment: broth microdilution MIC/MBC; assay type: cell-based; conditions: Staphylococcus aureus, NRS107
# Procedure: as §1
# VRS10 [2] = experiment: broth microdilution MIC/MBC; assay type: cell-based; conditions: Staphylococcus aureus
# Procedure: as §1
# VRS11a = experiment: broth microdilution MIC/MBC; assay type: cell-based; conditions: Staphylococcus aureus
# Procedure: as §1
# VRS4 [3] = experiment: broth microdilution MIC/MBC; assay type: cell-based; conditions: Staphylococcus aureus
# Procedure: as §1
# VRS7 = experiment: broth microdilution MIC/MBC; assay type: cell-based; conditions: Staphylococcus aureus
# Procedure: as §1
# S. aureus ATCC 6538 = experiment: broth microdilution MIC; assay type: cell-based; conditions: Staphylococcus aureus, ATCC6538
# Procedure: as §1
# S. epidermidis NRS101 = experiment: broth microdilution MIC; assay type: cell-based; conditions: Staphylococcus epidermidis, NRS101
# Procedure: as §1
# [4] = tested on: clinically-relevant strains of MRSA and VRSA; experiment: broth microdilution MIC/MBC, panel summary; assay type: cell-based; conditions: Staphylococcus aureus, read-out: concentration inhibiting growth of MRSA isolates (MIC)
# Procedure: as §1
# MRSA USA300 (NRS384) = experiment: time-kill assay; assay type: cell-based, Staphylococcus aureus; conditions: 4 × MIC
# [5] = tested on: S. aureus NRS107 (RN4220); experiment: accumulation of UDP-N-acetylmuramyl pentapeptide (HPLC-MS); assay type: cell-based, Staphylococcus aureus; conditions: 10 × MIC, 30 minutes
# Procedure: The accumulation of UDP-N-acetylmuramyl pentapeptide was detected using a procedure described in a previous study, with the following modifications. S. aureus NRS107 (RN4220), in early logarithmic growth stage (OD600 ~ 0.60), was incubated with 130 μg/mL chloramphenicol for 15 minutes at 37°C. […] Untreated samples served as a negative control. Samples were centrifuged at 10,000 rpm for five minutes, the supernatant discarded, and the pellet re-suspended in sterile deionzined water (1 mL). The pellet was boiled at […] for 30 minutes before samples were chilled on ice for 10 minutes. UDP-N-acetylmuramyl-pentapeptide was measured using an Agilent High Performance Liquid Chromatography coupled to a time-of-flight Mass Spectrometer (HPLC-MS). A Waters XBridge Phenyl (2.1 × 100 mm, 3.5 μm) chromatography column was used, with mobile phases of water, 0.1% formic acid (Buffer A) and acetonitrile, 0.1% formic acid (Buffer B). A gradient of 5–20% Buffer B over 14 minutes was used, with a flow rate of 0.3 mL/min. An electrospray source was used, in positive ionization mode. Extracted Ion Chromatograms (EIC) were generated at a mass-to-charge ratio (m/z) of 1150.3588 (20 ppm window). Mass error for UDP-N-acetylmuramyl-pentapeptide was <1 ppm.
# VRS10 [6] = experiment: microbe, parasite or virus in culture; assay type: cell-based, Staphylococcus aureus; conditions: Staphylococcus aureus, read-out: MIC of vancomycin
# Procedure: (§2) CAMHB was inoculated with strain VRS4 or strain VRS10 (5×10^5 CFU/mL), as described previously, with the following modifications. Aliquots ([…]) of the bacterial suspension were divided into micro-centrifuge tubes and compounds 1 or 2 (at ½ × MIC) were introduced into each tube. After 30 minutes of incubation at room temperature, samples from each tube were transferred to a new micro-centrifuge tube, prior to addition of vancomycin (at 128 μg/mL). Plates containing the test agents and bacteria were then incubated at 37 °C for 20–22 hours after which the MIC value was determined. A fold-reduction was calculated by comparing the MIC of vancomycin compared to the MIC of vancomycin given in combination with compounds 1 or 2 (at ½ × MIC).
# VRS4 [7] = experiment: microbe, parasite or virus in culture; assay type: cell-based, Staphylococcus aureus; conditions: Staphylococcus aureus, read-out: MIC of vancomycin
# Procedure: as §2
# [8] = tested on: S. epidermidis NRS101 biofilm; experiment: bacterial CFU inside mature biofilm post-treatment; assay type: cell-based, Staphylococcus epidermidis; conditions: 24 hours
# Procedure: (§3) Compounds 1, 2, and vancomycin were examined for their ability to eradicate mature staphylococcal biofilm using the microtiter dish biofilm formation assay. S. epidermidis NRS101 and S. aureus ATCC 6538 were selected as the test organisms given their ability to form strong adherent biofilm. An overnight culture of bacteria was diluted (1:100 in TSB + 1% glucose) and transferred to a 96-well plate. The plate was incubated for 24 hours at 37 °C in order to form adherent biofilm on the surface of the plate wells. The medium containing the bacterial suspension was removed and the biofilm was washed with sterile PBS to remove planktonic cells. Compounds 1, 2, or vancomycin (from 128 to 1 μg/mL), in triplicate, in TSB were incubated with the biofilm for 24 hours at 37 °C.
# (§4) For enumeration of viable CFU inside the biofilm, compounds were removed, wells were washed with sterile PBS, and treated with 0.25% Trypsin-2.21 mM EDTA solution as described elsewhere. The solution containing cells was transferred to a 96-well plate, serially diluted in PBS, and plated on TSA. Plates were incubated at 37 °C for 19 hours before viable CFU were counted. Data are presented as average log10(CFU/mL) of bacteria present in the biofilm post-treatment.
# [9] = tested on: S. epidermidis NRS101 biofilm; experiment: biofilm mass disruption, crystal violet reporter assay; assay type: cell-based, Staphylococcus epidermidis; conditions: 24-hour treatment
# Procedure: as §3
# (§5) Compounds were subsequently removed. The biofilm was washed with PBS and then stained with 1% (w/v) crystal violet for 40 minutes. The stain was removed and wells were washed with sterile PBS. Wells were next decolorized using 95% ethanol. The optical density of each well at 595 nm was measured using a microplate reader.
# [10] = tested on: S. aureus ATCC 6538 biofilm; experiment: bacterial CFU inside mature biofilm post-treatment; assay type: cell-based, Staphylococcus aureus; conditions: 64 μg/mL, 24 hours
# Procedure: as §3, §4
# [11] = tested on: S. aureus ATCC 6538 biofilm; experiment: biofilm mass disruption, crystal violet reporter assay; assay type: cell-based, Staphylococcus aureus; conditions: all concentrations tested
# Procedure: as §3, §5
# MRSA USA400 (NRS123) [12] = experiment: MIC in presence and absence of human serum albumin; assay type: cell-based, Staphylococcus aureus; conditions: for MIC: Staphylococcus aureus, TSB
# Procedure: The broth microdilution assay presented above was used to assess if compounds 1 and 2 bind to a major component of blood (human serum albumin) thus limiting the free fraction of drug available to exert its antibacterial effect. […] CaCl2 ([…]) was added to wells containing daptomycin, per the CLSI guidelines.
# [13] = 4% human serum albumin, read-out: MIC vs. MRSA USA400 (+HSA)
# [14] = without human serum albumin, read-out: MIC vs. MRSA USA400 (-HSA)
molecule,measurement,setting,value
O=C(O)c1cn(C2CC2)c2cc(N3CCNCC3)c(F)cc2c1=O [ciprofloxacin],increase in MIC after fourteen passages,MRSA USA400 (NRS123) [1]; MRSA USA400 (NRS123),seven-fold
same,increase in MIC after seven passages,"MRSA USA400 (NRS123) [1]; MRSA USA400 (NRS123), seven passages",three-fold
same,MIC,MRSA USA400 (NRS123) [1],1 µg/mL
Cc1onc(-c2ccccc2Cl)c1C(=O)N[C@@H]1C(=O)N2[C@@H]1SC(C)(C)[C@@H]2C(=O)O [cloxacillin],cytological profile (cell morphology),Bacillus subtilis,bulges at the poles of the cells
"CN[C@H](CC(C)C)C(=O)N[C@H]1C(=O)N[C@@H](CC(N)=O)C(=O)N[C@H]2C(=O)N[C@H]3C(=O)N[C@H](C(=O)N[C@H](C(=O)O)c4cc(O)cc(O)c4-c4cc3ccc4O)[C@H](O)c3ccc(c(Cl)c3)Oc3cc2cc(c3O[C@@H]2O[C@H](CO)[C@@H](O)[C@H](O)[C@H]2O[C@H]2C[C@](C)(N)[C@H](O)[C@H](C)O2)Oc2ccc(cc2Cl)[C@H]1O [Vancomycin, vancomycin, reference compound]",MBC,MRSA NRS123 (USA400),1 µg/mL
same,MIC,MRSA NRS123 (USA400),1 µg/mL
same,MBC,MRSA NRS384 (USA300),0.5 µg/mL
same,MIC,MRSA NRS384 (USA300),0.5 µg/mL
same,MBC,MRSA NRS387 (USA800),1 µg/mL
same,MIC,MRSA NRS387 (USA800),0.5 µg/mL
same,MBC,MRSA NRS483 (USA1000),1 µg/mL
same,MIC,MRSA NRS483 (USA1000),1 µg/mL
same,MBC,MRSA NRS484 (USA1100),2 µg/mL
same,MIC,MRSA NRS484 (USA1100),1 µg/mL
same,MBC,S. aureus NRS107,2 µg/mL
same,MIC,S. aureus NRS107,1 µg/mL
same,MBC,VRS10 [2],> 64 µg/mL
same,MIC,VRS10 [2],> 64 µg/mL
same,MBC,VRS11a,> 64 µg/mL
same,MIC,VRS11a,> 64 µg/mL
same,MBC,VRS4 [3],> 64 µg/mL
same,MIC,VRS4 [3],64 µg/mL
same,MBC,VRS7,> 64 µg/mL
same,MIC,VRS7,64 µg/mL
same,MIC,S. aureus ATCC 6538,0.5 µg/mL
same,MIC,S. epidermidis NRS101,1 µg/mL
same,MIC,[4],0.5 to 1 µg/mL
same,time to completely eradicate a high inoculum of MRSA (~10^6 CFU/mL),MRSA USA300 (NRS384),24 hours
same,UDP-N-acetylmuramyl pentapeptide accumulation,[5],notable increase
same,MIC,VRS10 [6],512 µg/mL
same,MIC,VRS4 [7],512 µg/mL
same,reduction in bacterial CFU within S. epidermidis biofilm,[8]; 64 μg/mL,1.4 log10
same,reduction in bacterial CFU within S. epidermidis biofilm,[8]; 128 μg/mL,3.14 log10
same,"S. epidermidis biofilm mass, OD595","[9]; 128 μg/mL, untreated control OD595 = 4.00",3.80
same,reduction in S. epidermidis biofilm mass,"[9]; 8 to 64 μg/mL, vs untreated control",no significant reduction
same,reduction in bacterial CFU within S. aureus biofilm,[10],1.0 log10
same,change in optical density of S. aureus biofilm (biofilm mass),[11],no change
"CC(=O)NC[C@H]1CN(c2ccc(N3CCOCC3)c(F)c2)C(=O)O1 [Linezolid, linezolid, reference compound]",increase in MIC after fourteen passages,MRSA USA400 (NRS123) [1]; MRSA USA400 (NRS123),one-fold
same,MIC,MRSA USA400 (NRS123) [1],2 µg/mL
same,increase in MIC in the presence of HSA,"MRSA USA400 (NRS123) [12]; MRSA USA400, 4% human serum albumin vs none",remained unchanged
same,MIC,MRSA USA400 (NRS123) [12]; [13],1 µg/mL
same,MIC,MRSA USA400 (NRS123) [12]; [14],1 µg/mL
Cc1onc(-c2ccccc2)c1C(=O)N[C@@H]1C(=O)N2[C@@H]1SC(C)(C)[C@@H]2C(=O)O [oxacillin],cytological profile (cell morphology),Bacillus subtilis,bulges and misshapen cells
N[C@@H]1CON=C1O [D-cycloserine],cytological profile (cell morphology),Bacillus subtilis,bulges and misshapen cells
"CCCCCCCCCC(=O)N[C@@H](Cc1c[nH]c2ccccc12)C(=O)N[C@H](CC(N)=O)C(=O)N[C@@H](CC(=O)O)C(=O)N[C@@H]1C(=O)NCC(=O)N[C@@H](CCCN)C(=O)N[C@@H](CC(=O)O)C(=O)N[C@H](C)C(=O)N[C@@H](CC(=O)O)C(=O)NCC(=O)N[C@H](CO)C(=O)N[C@@H]([C@H](C)CC(=O)O)C(=O)N[C@@H](CC(=O)c2ccccc2N)C(=O)O[C@@H]1C [Daptomycin, daptomycin, reference compound]",MIC,MRSA USA400 (NRS123) [12]; [13],64 µg/mL
same,MIC,MRSA USA400 (NRS123) [12]; [14],2 µg/mL
ramoplanin,cytological profile (cell morphology),Bacillus subtilis,bulges and misshapen cells
